The record followed here is patent publication US12544395B2, “Combination compositions comprising a beta-lactamase inhibitor and uses thereof” (priority 2018, dated 2026).

Structures are written as SMILES. Values after ≈ are worked out from the molar mass of the structure shown.

Experiment [1] relates to K. pneumoniae 170375. Nature of the experiment: Broth microdilution MIC (strain enzymes: SHV-12, CTX-M15 and TEM-1). The note with it: Klebsiella pneumoniae, 170375; alone; read-out: MIC of ceftibuten (CTB). It is filed as cell-based. In general terms: Broth dilution looks for growth in wells or tubes with falling amounts of substance.
Experiment [2] concerns K. pneumoniae KI (KCl). The experiment in a line: Broth microdilution MIC (strain enzymes: TEM-10). Type of experiment: cell-based. The settings on record: Klebsiella pneumoniae; alone; read-out: MIC of ceftibuten (CTB).
Experiment [3] deals with E. coli SI-AIRT-4. The experiment in a line: Broth microdilution MIC (strain enzymes: TEM-1). It is filed as cell-based. The note with it: Escherichia coli, SIAIRT4; alone; read-out: MIC of ceftibuten (CTB).
Experiment [4] concerns E. coli 2806. Nature of the experiment: Broth microdilution MIC (strain enzymes: SHV-12, TEM-1). The note with it: Escherichia coli, 2806; alone; read-out: MIC of ceftibuten (CTB). Type of experiment: cell-based.
Experiment [5] relates to E. coli SI-LP377. Nature of the experiment: microbe, parasite or virus in culture. The settings on record: Escherichia coli, SILP377, read-out: MIC of ceftibuten (CTB). Type of experiment: cell-based.
The test system of experiment [6] is three strains of E. coli expressing TEM-1+CTX-M-15, CTX-M-15, and KPC-2+SHV-12. Nature of the experiment: MIC against the UTI test strains. The settings on record: Escherichia coli; alone; read-out: Ceftibuten MICs. It is filed as cell-based.
Experiment [7] has as its system K. pneumoniae ESBL 7 #1. The experiment in a line: Broth microdilution MIC (strain enzymes: SHV-12, TEM-1). Type of experiment: cell-based. The settings on record: Klebsiella pneumoniae; alone; read-out: MIC of ceftibuten (CTB).
Experiment [8] deals with K. pneumoniae SI-KP NO30. Nature of the experiment: Broth microdilution MIC (strain enzymes: TEM-26b, SHV-60, SHV-26). The note with it: Klebsiella pneumoniae, SIKPNO30; alone; read-out: MIC of ceftibuten (CTB). It is filed as cell-based.
Experiment [9] concerns K. pneumoniae 115468. The experiment in a line: Broth microdilution MIC (strain enzymes: TEM-1). The settings on record: Klebsiella pneumoniae, 115468; alone; read-out: MIC of ceftibuten (CTB). It is filed as cell-based.
The test system of experiment [10] is K. pneumoniae ESBL 8 #1. The experiment in a line: Broth microdilution MIC (strain enzymes: TEM-1, SHV-12). Type of experiment: cell-based. The settings on record: Klebsiella pneumoniae; alone; read-out: MIC of ceftibuten (CTB).
Experiment [11] relates to E. coli 3174. The experiment in a line: Broth microdilution MIC (strain enzymes: TEM-1, CTXM-15). It is filed as cell-based. The note with it: Escherichia coli, 3174; alone; read-out: MIC of ceftibuten (CTB).
Experiment [12] has as its system K. pneumoniae KP 4. The experiment in a line: Broth microdilution MIC (strain enzymes: SHV-2a, SHV-5, TEM-1). Type of experiment: cell-based. The settings on record: Klebsiella pneumoniae, KP4; alone; read-out: MIC of ceftibuten (CTB).
Experiment [13] deals with K. pneumoniae 11/23 LF#2. Nature of the experiment: microbe, parasite or virus in culture. It is filed as cell-based. The settings on record: Klebsiella pneumoniae, read-out: MIC of ceftibuten (CTB).
The subject of experiment [14] is E. coli SI-NO36. Nature of the experiment: Broth microdilution MIC (strain enzymes: SHV-11, TEM-1). It is filed as cell-based. The settings on record: Escherichia coli, SINO36; alone; read-out: MIC of ceftibuten (CTB).
Experiment [15] concerns E. coli ESBL 4. Nature of the experiment: Broth microdilution MIC (strain enzymes: CTX-M15, TEM-1). Type of experiment: cell-based. The note with it: Escherichia coli, ESBL4; alone; read-out: MIC of ceftibuten (CTB).
Experiment [16] concerns 21 strains of Enterobacteriaceae expressing various beta-lactamases. Nature of the experiment: MIC testing of thigh model strains. Type of experiment: cell-based. The note with it: read-out: ceftibuten MICs.
Experiment [17] has as its system K. pneumoniae 3151. The experiment in a line: Broth microdilution MIC (strain enzymes: SHV-12, TEM-1). The settings on record: Klebsiella pneumoniae, 3151; alone; read-out: MIC of ceftibuten (CTB). It is filed as cell-based.
For experiment [18], the system named is E. coli SI-V502. The experiment in a line: Broth microdilution MIC (strain enzymes: TEM-29, CTX-M15). It is filed as cell-based. The note with it: Escherichia coli, SIV502; alone; read-out: MIC of ceftibuten (CTB).
Experiment [19] relates to E. coli expressing TEM-1+CTX-M-15, CTX-M-15, and KPC-2+SHV-12. Nature of the experiment: Murine ascending UTI model, three strains. The settings on record: mouse, in vivo. Type of experiment: in vivo, mice.
For experiment [20], the system named is E. coli 25922. Nature of the experiment: Broth microdilution MIC (strain enzymes: None detected). Type of experiment: cell-based. The note with it: Escherichia coli, 25922; alone; read-out: MIC of ceftibuten (CTB).
Experiment [21] deals with panel of ESBL-producing Enterobacteriaceae (40 strains). The experiment in a line: Broth microdilution MIC50/MIC90 summary over the panel. It is filed as cell-based.

In general, MIC50 refers to an inhibitory concentration at the 50% level, which refers to growth in some studies and to a panel of isolates in others. The MIC90 is the lowest concentration that inhibits either 90% of growth or 90% of the strains tested, depending on the study. Turning to `Nc1nc(/C(=C/CC(=O)O)C(=O)N[C@@H]2C(=O)N3C(C(=O)O)=CCS[C@H]23)cs1` [Ceftibuten, ceftibuten, reference compound], the MIC was 32 µg/mL in experiment [1]; 1 µg/mL in experiment [2]; 0.5 µg/mL in experiment [3]; 2 µg/mL in experiment [4]; 4 µg/mL in [5]; 8 to 64 µg/mL (≈ 19.5 to 156 µM) in [6]. The MIC was 32 µg/mL in experiment [7]; 0.25 µg/mL in experiment [8]; 8 µg/mL in [9]; 16 µg/mL in [10]; 0.5 µg/mL in [11]; 32 µg/mL in experiment [12]. Besides, the MIC is 2 µg/mL in [13]; 0.5 µg/mL in [14]; greater than 32 µg/mL in [15]; no less than 32 µg/mL in [16]; greater than 32 µg/mL in experiment [17]; 0.5 µg/mL in experiment [18]. The MIC in experiment [20] is 0.25 µg/mL. The “CFU reductions in the kidneys” value in experiment [19] is recorded as “minimal CFU reductions”. Also, the MIC50 in [21] (read-out: Ceftibuten MIC50) amounted to 8 µg/mL (≈ 19.5 µM). Moreover, the MIC90 in experiment [21] (read-out: Ceftibuten MIC90) is greater than 32 µg/mL.
